According to paper PMC12718261, “New Fluorescent Synthetic Retinoids as Potential RAR Agonists with Anticancer, Molecular Docking and ADME Assessments” (Journal of Fluorescence, 2025):
Several values for one entry are separate records, joined by “and”; a condition that tells them apart may be missing. Equal entries are not always repeated.

Legend:
Format in all cases: cell-based
[1] = system: WI-38 normal human fibroblast cells; test: MTT cytotoxicity assay on normal fibroblasts; settings: WI-38 normal fibroblast cells, 24 h, mean ± SEM
Protocol: (§1) The antiproliferation and cytotoxicity were assessed using 3-(4,5-dimethylthiazol-2-yl)−2,5-diphenyltetrazolium bromide (MTT, Serva) colorimetric assay. All tested cancer cell lines were seeded at a density of 20,000 cells per well in 96-well plates and allowed to adhere overnight. The attached cells were treated with five serial dilutions (100, 50, 5, 0.5, and 0.1 μM) in triplicate. These concentrations were prepared by diluting the stock solutions with serum-free culture media. The negative control cells were those treated with 0.1% DMSO solvent alone. The treated cells were handled in reduced light and maintained under standard culture growth conditions for 24 h. After the incubation period, MTT powder was prepared as a stock solution (5 mg/mL), and 20 μL of the MTT working reagent (final concentration 0.5 mg/mL) was added to each well. This was followed by incubation with MTT reagent for 4 h in a humidified atmosphere (37 °C, 5% CO2) with subsequent addition of 150 μL of DMSO solubilizing solvent and incubation for 20 min. The absorbance of solubilized violet formazan crystals was measured at 570 nm with a Biotek 800 TS microplate reader. IC50 was calculated as the concentration of retinoid that produced 50% cell growth inhibition. For cytotoxicity assessment, WI-38 normal human fibroblast cells were used for the calculation of SI, which is the ratio of IC50 retinoid (WI-38)/IC50 retinoid (cancer cell line).

IL-10 in Caco-2 cells = test: Intracellular IL-10 ELISA; settings: Caco-2, IC50 dose, 24 h, vs DMSO control
Protocol: For IL-10. Moreover, IL-6 measurements and cell pellets were lysed using RIPA buffer, and the total lysate was collected. The total protein was estimated to use commercially available ELISA kits as per the manufacturer’s instructions. ELISA plates were coated and used for analysis according to the previously used protocol using capture antibody (IL-6, Cat. No.: RAB0307 [57] and IL-10, Cat. No.: RAB1060 [58]), followed by blocking using 5% BSA in PBS-Tween buffer for 1 h. After incubating with samples for 2 h, a secondary […] antibody was added and kept for incubation for 2 h. Streptavidin-HRP reagent was then added to the plates, followed by the addition of TMB solution. Finally, the reaction was stopped using 2 N H2SO4, and the color was measured using the BioTek 800 TS absorbance plate reader (USA) at 450 nm wavelengths, and the protein was quantified.

PC-3 = test: MTT anti-proliferative assay; settings: Homo sapiens; PC-3, MTT, 24 h, mean ± SEM
Protocol: as §1

Caco-2 = test: MTT anti-proliferative assay; settings: Homo sapiens; Caco-2, MTT, 24 h, mean ± SEM
Protocol: as §1

HepG-2 = test: MTT anti-proliferative assay; settings: Homo sapiens, HepG2; HepG-2, MTT, 24 h, mean ± SEM
Protocol: as §1

HCT-116 = test: MTT anti-proliferative assay; settings: Homo sapiens; HCT-116, MTT, 24 h, mean ± SEM
Protocol: as §1

MDA-MB231 = test: MTT anti-proliferative assay; settings: Homo sapiens, MDA-MB-231, 24 h, mean ± SEM
Protocol: as §1

MCF-7 = test: MTT anti-proliferative assay; settings: Homo sapiens, MCF7; MCF-7, MTT, 24 h, mean ± SEM
Protocol: as §1

[2] = system: total ATPase in Caco-2 cells; test: Total ATPase activity, malachite green colorimetric; settings: Caco-2, IC50 dose, 24 h; 0.1% DMSO control normalized to 100%
Protocol: (§2) The total activity of ATPase and calcium-independent ATPase activity was quantified colorimetrically as described by our previous protocol. […] The inorganic phosphate (Pi) liberated after the hydrolysis of ATP by ATPase enzymes was complexed into a colored product in one step after the addition of a mixed reagent containing malachite green, ammonium molybdate, and polyvinyl alcohol (2:1:1). The intensity of absorbance at 630 nm was measured using the BioTek 800 TS absorbance plate reader (USA) and was directly proportional to the quantity of liberated Pi. In order to eliminate any color due to the non-enzymatic hydrolysis of ATP, control reactions were made using only ATP in the reaction buffer, and the absorbance intensity was then subtracted from the readings of the samples and standards.

[3] = system: calcium-independent ATPases in Caco-2 cells; test: Calcium-independent ATPase activity, malachite green colorimetric; settings: Caco-2, IC50 dose, 24 h; 0.1% DMSO control normalized to 100%
Protocol: as §2

[4] = system: Cyt-C gene in Caco-2 cells; test: Gene expression RT-qPCR; settings: Caco-2, IC50 dose, 24 h, relative to 0.1% DMSO, normalized to GAPDH
Protocol: (§3) The gene expression analysis was performed using real-time quantitative PCR (RT-qPCR), as previously documented. After incubation, cells were harvested, and total RNA was extracted using the Favor-PrepTM Blood/Cultured Cell Total RNA Purification Mini kit (Favorgen Biotech Corp., Ping-Tung, Taiwan). The purified RNA was then reverse transcribed into the first-strand cDNA using the Revert Aid First-Strand cDNA Synthesis Kit (Thermo Scientific, Waltham, MA, USA). All qPCR reactions were carried out using the […] SYBR® Green qPCR Kit (Willowfort, Nottingham, UK). Differential gene expression was performed using the 2ˆ^−ΔΔCT method utilizing GAPDH as a reference gene.

[5] = system: Caspase-3 gene in Caco-2 cells; test: Gene expression RT-qPCR; settings: Caco-2, IC50 dose, 24 h, relative to 0.1% DMSO, normalized to GAPDH
Protocol: as §3

[6] = system: CRABPI gene in Caco-2 cells; test: Gene expression RT-qPCR; settings: Caco-2, IC50 dose, 24 h, relative to 0.1% DMSO, normalized to GAPDH
Protocol: as §3

[7] = system: RAR-γ gene in Caco-2 cells; test: Gene expression RT-qPCR; settings: Caco-2, IC50 dose, 24 h, relative to 0.1% DMSO, normalized to GAPDH
Protocol: as §3

Caco-2 cancer cells [8] = test: Cell cycle assay PI staining flow cytometry; settings: Caco-2, IC50 dose, 24 h
Protocol: The standard protocol used in HSBR was performed. […] Cells were concentrated at 1500 xg and suspended in 50 μg/ml propidium iodide (PI) staining solution and 20 µg/ml RNaseA to identify cells with a sub-G1 DNA content. Cytoflex flow cytometer (Beckman Coulter, USA) was used, and CytExpert software (version 2.4.0.28) was employed for data analysis. The gating strategy used to eliminate doublets depends on plotting the population against a 2D contour plot in four quadrants, referred to as Q1(LL), Q2 (LR), Q3 (UL), and Q4 (UR), that illustrates the spread of the Annexin-FITC-H core cell population against PI PE-H.

Caco-2 cancer cells [9] = test: Apoptosis assay Annexin V/PI flow cytometry; settings: Caco-2, IC50 dose, 24 h, AV/PI
Protocol: The standard protocol used in HSBR was performed. […] Cells were rinsed with 1 mL of binding buffer; the cells were again suspended in phosphate-buffered saline (PBS) (Lonza). 100 µL of cell suspension was incubated with 1 µL of FITC-labeled Annexin-V and 5 µL of PI for 15 min at 4 °C in the dark. The suspension was then mixed with 400 µL of ice-cold binding buffer, and each sample's apoptotic cells were analyzed using a Cytoflex flow cytometer (Beckman Coulter, USA), and CytExpert software (version 2.4.0.28) was employed for data analysis.

[10] = system: RAR-α, RAR-β, RAR-γ proteins in Caco-2 cells; test: Western blotting of RAR proteins; settings: Caco-2, IC50 dose, 24 h, normalized to β-actin
Protocol: Using the previously outlined protocol, the western blot technique was used to determine the expression of RAR-α (Cat. No. E6Z6 K, cell signaling, USA), RAR-β (Cat. No. PP-H4338-00, R&D systems, USA) and RAR- γ (Cat. No. D3 A4, cell signaling, USA) in Caco-2 cells. […] Following incubation, floating adhered cells were separated and lysed. The Caco-2 cell lysate was immediately collected, subjected to sonication, and centrifuged for 15 min at 12,000 × g. The total soluble protein content was measured colorimetrically using the PierceTM 660 nm Assay (Thermo Scientific, Waltham, MA, USA) after the resultant supernatant was separated. The Gel documentation system (Geldoc-it, UVP, England) was applied for data analysis using Totallab analysis software (Ver.1.0.1) (ww.totallab.com).

[11] = system: different cancer cell lines; test: MTT anti-proliferative assay, whole panel statements; settings: 24 h, read-out: IC50 across different cancer cell lines
Protocol: as §1, with “For cytotoxicity assessment, WI-38 normal human fibroblast cells were used for the calculation of SI, which is the ratio of IC50 retinoid (WI-38)/IC50 retinoid (cancer cell line).” left out

SMILES: COC(=O)c1ccc2cc(-c3ccc4c(c3)CCCN4)ccc2c1 [Compound 3a, Methyl 6-(1,2,3,4-tetrahydroquinolin-6-yl)−2-naphthoate]
- IC50 [1]: 39.2 ± 4.7 µM
- intracellular IL-10 level change (IL-10 in Caco-2 cells): additional significant reduction
- IC50 (PC-3): 18.9 ± 4 µM
- IC50 (Caco-2): 9.58 ± 1.1 µM
- IC50 (HepG-2): 6.37 ± 1 µM
- IC50 (HCT-116): 10.2 ± 3.8 µM
- IC50 (MDA-MB231): 2.33 ± 0.6 µM
- IC50 (MCF-7): 13.8 ± 2.4 µM
- total ATPase activity [2]: 43.9%
- ca+2-independent ATPase activity [3]: 40.0%
- Cyt-C gene expression fold change [4]: did not show any overexpression
- caspase-3 gene expression fold change [5]: 8.5 ± 0.4 fold
- CRABPI gene expression fold change [6]: 2.4 ± 0.1 fold
- RAR-γ gene expression fold change [7]: 4.5 ± 0.2 fold
- % G0-G1 (Caco-2 cancer cells [8]): 23.90 ± 8.4%
- % G2M (Caco-2 cancer cells [8]): 2.41 ± 0.3%
- % S (Caco-2 cancer cells [8]): 4.13 ± 1.2%
- % SubG0-G1 (Caco-2 cancer cells [8]): 70.02% and 70.02 ± 4.7 %
- % Early apoptotic cells (LR) (Caco-2 cancer cells [9]): 47.37 ± 3.9 %
- % Late apoptotic cells (UL) (Caco-2 cancer cells [9]): 0.30%
- % Necrotic cells (UR) (Caco-2 cancer cells [9]): 51.38 ± 3.6 %
- % Viable cells (LL) (Caco-2 cancer cells [9]): 0.95%

SMILES: O=C(O)c1ccc2cc(-c3ccc4c(c3)CCCN4)ccc2c1 [Compound 4a, 6-(1,2,3,4-tetrahydroquinolin-6-yl)−2-naphthoic acid]
- IC50 [1]: 43.7 ± 4.2 µM
- intracellular IL-10 level change (IL-10 in Caco-2 cells): did not show any significant reduction
- IC50 (PC-3): 2.78 ± 0.3 µM
- IC50 (Caco-2): 47.3 ± 6.2 µM
- IC50 (HepG-2): 53 ± 4.9 µM
- IC50 (HCT-116): 133 ± 6.8 µM
- IC50 (MDA-MB231): 2.42 ± 1.3 µM
- IC50 (MCF-7): 64.8 ± 5.4 µM
- total ATPase activity [2]: 23.7%
- ca+2-independent ATPase activity [3]: 13.9%
- Cyt-C gene expression fold change [4]: did not show any overexpression
- caspase-3 gene expression fold change [5]: did not show any significant increase
- RAR protein expression (western blot) [10]: overexpression of all RARs
- % G0-G1 (Caco-2 cancer cells [8]): 18.77 ± 4.8%
- % G2M (Caco-2 cancer cells [8]): 2.26 ± 0.4%
- % S (Caco-2 cancer cells [8]): 3.53 ± 1.3%
- % SubG0-G1 (Caco-2 cancer cells [8]): 75.83% and 75.83 ± 6.4 %
- % Early apoptotic cells (LR) (Caco-2 cancer cells [9]): 23.44% and 23.44 ± 2.3 %
- % Late apoptotic cells (UL) (Caco-2 cancer cells [9]): 0.37%
- % Necrotic cells (UR) (Caco-2 cancer cells [9]): 75.13% and 75.13 ± 6.8 %
- % Viable cells (LL) (Caco-2 cancer cells [9]): 1.06 ± 0.1%

SMILES: COC(=O)c1ccc2cc(-c3ccc4c(c3)CCCO4)ccc2c1 [Compound 3b, Methyl 6-(chroman-6-yl)−2-naphthoate]
- IC50 [1]: 29.2 ± 2.1 µM
- IC50 (PC-3): 4.6 ± 1.7 µM
- IC50 (Caco-2): 14.4 ± 0.36 µM
- IC50 (HepG-2): 12 ± 2.6 µM
- IC50 (HCT-116): 52.9 ± 4.3 µM
- IC50 (MDA-MB231): 2.09 ± 0.1 µM
- IC50 (MCF-7): 12.2 ± 3.2 µM
- total ATPase activity [2]: 41%
- ca+2-independent ATPase activity [3]: 36.2%
- IC50 [11]: ≤ 50 µM
- Cyt-C gene expression fold change [4]: did not show any overexpression
- caspase-3 gene expression fold change [5]: did not show any significant increase
- CRABPI gene expression fold change [6]: 9.9 ± 0.4 fold
- RAR-γ gene expression fold change [7]: 2.4 ± 0.1 fold
- % G0-G1 (Caco-2 cancer cells [8]): 19.65 ± 2.7%
- % G2M (Caco-2 cancer cells [8]): 1.74 ± 0.1%
- % S (Caco-2 cancer cells [8]): 3.31 ± 1.1%
- % SubG0-G1 (Caco-2 cancer cells [8]): 75.62% and 75.62 ± 7.4 %
- % Early apoptotic cells (LR) (Caco-2 cancer cells [9]): 60.06 ± 5.4 %
- % Late apoptotic cells (UL) (Caco-2 cancer cells [9]): 0.49%
- % Necrotic cells (UR) (Caco-2 cancer cells [9]): 37.78% and 37.78 ± 2.7 %
- % Viable cells (LL) (Caco-2 cancer cells [9]): 1.68 ± 0.1%
